Results from US9120787B2, “HIV replication inhibitors” (priority 2011, dated 2015).
pIC50: −log10 of the molar value.

What was measured:
HIV-1Ba-L [1] = assay: Inhibition of virus replication in MAGI-CCR5 cells (β-galactosidase reporter); format: cell-based; settings: HIV-1Ba-L in MAGI-CCR5 cells; for pIC50: 48 hours, β-galactosidase reporter expression, read-out: IC50
Protocol: (§1) The anti-viral activity of dihydropyrimidines was shown by inhibition of virus replication in MAGI-CCR5 cells. MAGI-CCR5 cells are derived from HeLa-CD4-LTR-β-galactosidase cells. The cells have been engineered to express high levels of CD4 and CCR5 and contain one copy of the HIV-1 LTR promoter driving expression of the β-galactosidase gene upon HIV-1 Tat transactivation. On the day preceding the assay, the cells were plated at 1.0×10^4 cells per well and maintained at 37° C. and 5% CO2 in a humidified incubator. Total cell count and viability was visually assessed using a hemacytometer and trypan blue exclusion.
Compounds were evaluated at six concentrations (triplicate wells/concentration). On the day of assay setup, compound dilutions were prepared at two-times (2×) the final concentrations. Media was decanted and wells were replenished with 50 μl of 2× compounds, followed by the addition of 50 μl of diluted virus. Identical uninfected assays were prepared for parallel cytotoxicity testing.
Evaluation of Dihydropyrimidines vs. HIV-1Ba-L in MAGI-CCR5 Cells

[2] = Cytotoxicity by MTS staining in uninfected MAGI-CCR5 cells; format: cell-based; settings: human, read-out: TC50
Protocol: as §1, with “exclusion. Compounds were evaluated at six concentrations (triplicate wells/concentration). On the day of assay setup, compound dilutions were prepared at two-times (2×) the final concentrations. Media was decanted and wells were replenished with 50 μl of 2× compounds, followed by the addition of 50 μl of diluted virus. Identical uninfected assays were prepared for parallel cytotoxicity testing.” for “exclusion.”

HIV-1Ba-L [3] = assay: HIV-1Ba-L replication in PBMCs (supernatant RT end-point); settings: HIV-1Ba-L in PBMCs, seven days, RT end-point
Protocol: Evaluation of Dihydropyrimidines vs. HIV-1Ba-L in Peripheral Blood Mononuclear Cells (PBMCs)
Cultures of pooled phytohemagglutinin stimulated peripheral blood mononuclear cells (PBMC) were seeded into a 96-well plate at plating density of 5×10^4 cells/well. Compounds were serially diluted into media in ½-log increments using a high test of […] and […] of each concentration (nine total concentrations). Cells were infected with HIV strains HIV-1Ba-L and NL4-3 at an MOI=0.1. The PBMCs were cultured for seven days in an humidified incubator maintained at 37° C., 5% CO2 atmosphere. At the assay end-point, the supernatant was collected and analyzed for reverse transcriptase activity. For the RT assay, tritiated thymidine triphosphate (3H-TTP, 80 Ci/mmol) was diluted 1:1 dH2O:Ethanol at 1 mCi/ml. Poly rA:oligo dT template:primer was prepared as a stock solution by combining 150 μl poly rA (20 mg/ml) with 0.5 mL oligo dT (20 units/ml) and 5.35 ml sterile dH2O followed by aliquoting (1.0 ml) and storage at −20° C. The RT reaction buffer contained of 125 ml 1.0 M EGTA, 125 ml dH2O, 125 ml 20% Triton X100, 50 ml 1.0 M Tris (pH 7.4), 50 ml 1.0 M DTT, and 40 ml 1.0 M MgCl2. The final reaction mixture was prepared by combining 1 part 3H-TTP, 4 parts dH2O, 2.5 parts poly rA:oligo dT stock and 2.5 parts reaction buffer. To each well, ten microliters of the reaction mixture and 15 μl of virus containing supernatant were added. The plates were incubated at 37° C. for 60 minutes. Following incubation, the reaction volume was spotted onto DE81 filter-mats, washed 5 times for 5 minutes each in a 5% sodium phosphate buffer or 2×SSC. […] were washed 2 times for 1 minute each in distilled water, 2 times for 1 minute each in 70% ethanol, and then dried. Incorporated radioactivity (counts per minute, CPM) was quantified using standard liquid scintillation techniques.

Compound	TI (TC50/IC50) (HIV-1Ba-L [1])	pIC50 (HIV-1Ba-L [1]; Human immunodeficiency virus 1)	CC50 at 48 h [2] [µM]	pIC50 (HIV-1Ba-L [1])	pIC50 (HIV-1Ba-L [3])
COc1ccc(-c2csc(C3=C(C)NC(=O)NC3c3ccc(Cl)nc3)n2)cc1 (centres unmarked) [Example 41]	D (D < 10.0)	4.00 to 5.30	50 to 100		
COc1ccc(-c2csc(C3=C(C)NC(=O)NC3c3cccc(C(F)(F)F)c3)n2)cc1 (centres unmarked) [Example 45]	D (D < 10.0)	< 4.00	≥ 100		
COc1ccc(-c2csc(C3=C(C)NC(=O)NC3c3cccc(O)c3)n2)cc1 (centres unmarked) [Example 46]	D (D < 10.0)	4.00 to 5.30	≥ 100		
CC1=C(c2nc(-c3ccc(C#N)cc3)cs2)C(c2ccc(F)cc2)NC(=O)N1 (centres unmarked) [Example 49]	C (C < 50.0 to 10.0)	5.30 to 6.00	≥ 100		
CC1=C(c2nc(-c3ccc(C#N)cc3)cs2)C(c2cccc(Cl)c2)NC(=O)N1 (centres unmarked) [Example 51]	C (C < 50.0 to 10.0)	4.00 to 5.30	≥ 100		
CC1=C(c2nc(-c3ccc(C#N)cc3)cs2)C(c2ccc(OCc3ccccc3)cc2)NC(=O)N1 (centres unmarked) [Example 52]	C (C < 50.0 to 10.0)	5.30 to 6.00	≥ 100		
CC1=C(c2nc(-c3ccc(C#N)cc3)cs2)C(c2cc(F)cc(F)c2)NC(=O)N1 (centres unmarked) [Example 53]	C (C < 50.0 to 10.0)	5.30 to 6.00	≥ 100		
CC1=C(c2nc(-c3ccc(C#N)cc3)cs2)C(c2ccc(N(C)C)cc2)NC(=O)N1 (centres unmarked) [Example 54]	C (C < 50.0 to 10.0)	4.00 to 5.30	50 to 100		
CC1=C(c2nc(-c3ccc(C#N)cc3)cs2)C(c2ccc([N+](=O)[O-])cc2)NC(=O)N1 (centres unmarked) [Example 55]	C (C < 50.0 to 10.0)	4.00 to 5.30	≥ 100		
CC1=C(c2nc(-c3ccc(C#N)cc3)cs2)C(c2ccc(F)c(C#N)c2)NC(=O)N1 (centres unmarked) [Example 56]	C (C < 50.0 to 10.0)	4.00 to 5.30	≥ 100		
CC1=C(c2nc(-c3ccc(C#N)cc3)cs2)C(c2ccc(C#N)c(F)c2)NC(=O)N1 (centres unmarked) [Example 57]	C (C < 50.0 to 10.0)	4.00 to 5.30	≥ 100		
CC1=C(c2nc(-c3ccc(C#N)cc3)cs2)C(c2ccc(-c3ccccc3)cc2)NC(=O)N1 (centres unmarked) [Example 58]	C (C < 50.0 to 10.0)	5.30 to 6.00	≥ 100		
CC1=C(c2nc(-c3ccc(C#N)cc3)cs2)C(c2ccc(F)c([N+](=O)[O-])c2)NC(=O)N1 (centres unmarked) [Example 60]	C (C < 50.0 to 10.0)	4.00 to 5.30	≥ 100		
CC1=C(c2nc(-c3ccc(C#N)cc3)cs2)C(c2ccc(Cl)c(OC(F)(F)F)c2)NC(=O)N1 (centres unmarked) [Example 61]	D (D < 10.0)	4.00 to 5.30	≥ 100		
CC1=C(c2nc(-c3ccc(C#N)cc3)cs2)C(c2cccc(OC(F)(F)F)c2)NC(=O)N1 (centres unmarked) [Example 62]	D (D < 10.0)	4.00 to 5.30	≥ 100		
CC1=C(c2nc(-c3ccc(C#N)cc3)cs2)C(c2ccc(OC(F)(F)F)cc2)NC(=O)N1 (centres unmarked) [Example 63]	D (D < 10.0)	4.00 to 5.30	≥ 100		
COc1cccc(C2NC(=O)NC(C)=C2c2nc(-c3ccc(C#N)cc3)cs2)c1 (centres unmarked) [Example 65]	C (C < 50.0 to 10.0)	5.30 to 6.00	≥ 100		
CC1=C(c2nc(-c3cccc(C#N)c3)cs2)C(c2cccc(O)c2)NC(=O)N1 (centres unmarked) [Example 66]	D (D < 10.0)	4.00 to 5.30	50 to 100		
Maraviroc [reference compound]				9.22	8.05
